Tested on: anxiety induced by (-)-nicotine withdrawal
Test: Elevated plus-maze 48 hours after withdrawal of 14-day chronic (-)-nicotine
Type: in vivo, rats
Conditions: for TIME OPEN ARMS: chronic (-)-nicotine, mean ± SEM
Text: The mouse elevated plus-maze is a conflict test that probes anxiolytic activity of test compounds (Lister, Psychopharmacology, 1987, 92:180). It is based on the fact that exposure of mice to an elevated open arm leads to an avoidance response considerably stronger than that evoked by exposure to an enclosed arm. Compounds may be tested for their ability to modify the avoidance response of the animal to the open arm maze. […] The effect of such potential anti-anxiety drugs may be tested further in a withdrawal challenge test.
Elevated Plus-Maze: The procedure originally described by Pellow et al., for rats was used, with minor modifications (Pellow et al., J. Neurosci. Meth., 14: 149, 1985). The apparatus consisted of two open arms (50×10 cm) and two enclosed arms (50×10×40 cm) extending from a central platform (10×10 cm). It was mounted on a base raising 50 cm above the floor. Light levels on the open and enclosed arms were similar. The animals were placed in the center of the maze and the time spent in the open arms and the total distance traveled by the rat were recorded automatically by a camera mounted above the apparatus, then analyzed by computer (Videomex™ software, Columbus Instruments, Columbus, Ohio). All animals used were naive to the apparatus. Animals were injected i.p. with saline or the different drug doses, and submitted to the test 30 minutes later. The test lasted 5 minutes, and the apparatus was thoroughly cleaned after removal of the animal.
The pumps were removed on day 14 and the animals were tested in the plus-maze 48 hours later, at the time when a state of withdrawal-induced anxiety was present in the rats. On the test day i.p. doses of either saline or the compound of Example 2 were administered to the animals 30 minutes before the test. Data (Table 13) represent the mean ±SEM time spent in the open arms of the plus-maze of 8-16 rats.

## Cc1cc([C@@H]2CCCN2C)on1.O=C(O)C(=O)O [Example 2, 3-Methyl-5-(1-methyl-2(S)-pyrrolidinyl)-isoxazole oxalate salt]
48 h after withdrawal of chronic (-)-nicotine
  effect on time spent in the open arms: significant increase in the time spent in the open arms
Challenge 0.19 μmol/kg i.p.
  TIME OPEN ARMS: 36.8 ± 12.5 s
Challenge 0.62 μmol/kg i.p., **p < 0.05 against chronic nicotine, saline-challenged
  TIME OPEN ARMS: 73.6 ± 7.7 s
Challenge 1.9 μmol/kg i.p.
  TIME OPEN ARMS: 43.1 ± 10.1 s
